Data on one compound can be found in patent US20060111335A1, “Photoactivated anti-viral and anti-cancer agent” (priority 2002, published 2006).

One series relates to CT DNA. Put plainly: Dark interaction of DPPZPHEN with CT DNA, UV-Vis absorption titration at 380 nm. The series is classed as binding, calf. Conditions: CT DNA, from molar extinction coefficient at 380 nm. As for the experimental part: General. The quantity of DNA was determined by the Burton assay (Burton, Biochem. J., 62:315-322 (1956)), and its rhodium content was quantitated using flame atomic absorption spectroscopy (AA). The equilibrium constant for interaction between DPPZPHEN and CT-DNA in the dark was calculated from UV-Vis absorption titration measurements at 380 nm (Wolfe et al., Biochem., 26:6392-6396 (1987); Schemel et al., Biopolymers, 10:465-480 (1971)). Cell viability was determined using the MTT assay (Denizot et al., J. Immunol. Methods, 89:271-277 (1986)). SINV was purified on sucrose gradients as previously described (Owen et al., J. Virol., 70:2757-2763 (1996)). The titer was generally 7-8 log10 pfu/mL at the beginning of each experiment.
Interaction of DPPZPHEN with DNA. […] An intrinsic binding constant of […] 3.4×10^5 M^−1 was calculated using the molar extinction coefficient at the λmax (380 nm) at each titration point.

The next series concerns φX-174 plasmid DNA. Put plainly: Photonicking of φX-174 plasmid DNA, gel electrophoresis. The series is classed as biochemical. As for the experimental part:
Photolysis with φX-174 Plasmid DNA. Metal complex solutions (with or without quenchers) were saturated with oxygen or argon prior to irradiation. The solutions were further degassed after being mixed with the plasmid. The final solution concentrations were: DPPZPHEN ([…]), φX-174 plasmid DNA (205 μM in base pairs), superoxide dismutase (25 μg/mL), 2-propanol (0.5 M), mannitol (6.25 mM), histidine (8 mM).
Experiments were conducted as described in Example X to evaluate the amount photonicking that occurred in the dark and upon exposure to light for 37TMBP, 56TMBP, OCTBP, BISNMe2, TMOBP, TIOBP, TPBP, BISTAP and BISDPPZ.

Another series concerns SINV genomic RNA. Put plainly: Immunofluorescence assay for SINV capsid protein translated from irradiated viral RNA in BHK cells. It is filed as cell-based, Sindbis virus. The conditions noted are these: RNA from virus irradiated with compound. As to the method: An immunofluorescence assay was also employed to detect the presence of SINV capsid protein newly translated from the irradiated viral genomic RNA. For these experiments the virus solutions had to be 10 log10 pfu/mL, which is a virus concentration 3 orders of magnitude higher than that used in the previous experiments. Also, the DPPZPHEN solutions had to be prepared in DMSO to maintain the ratio of drug to virus as in the previous experiments. […] SINV RNA from virus that had been either incubated in the dark or irradiated with DPPZPHEN was isolated and transfected into baby hamster kidney cells as described above. Following electroporation, the cells were plated on coverslips and incubated at 37° C. for 12 hours. The cells on the coverslips were then fixed with methanol for 15 minutes and washed twice with 1×PBS buffer. They were then incubated with anti-CP (SINV) polyclonal antibody (Owen et al., J. Virol., 70:2757-2763 (1996)) for 45 minutes at 37° C. After washing three times with 1×PBS buffer the cells were incubated with fluorescein-5-isothiocyanate (FITC) conjugated goat anti-rabbit secondary antibody (obtained from Kirkegaard and Perry, Gaithsburg, Md.) at 37° C. for 45 minutes. […] They were viewed under a Nikon Eclipse TE200 with a TE-FM Epi-fluorescence attachment.

The subject of the next series is cell membrane. Put plainly: Cell uptake / passage through the cell membrane. As to the method:
OCTBP uptake by KB cells. 11 mg of OCTBP was dissolved in 40 mL of PBS buffer. The solution was vortex stirred for 5 minutes to completely dissolve the solid. The solution was sterile filtered through a 0.2μ nylon syringe filter. The concentration of the solution was determined by measuring the UV absorption at 353 nm (ε353nm=1565 M^−1cm^−1).
Once the cells were 75% confluent media was decanted from the flasks and 8 mL of drug solutions were added to three flasks and 8 mL of PBS buffer solution was added to the control flask. The flasks were incubated at 37° C. for 15, 30 and 45 minutes. Control flask was incubated for 45 minutes. When the flasks were removed, they were washed with 6×10 mL of PBS buffer solution. All the liquid was carefully decanted from the flasks. 1 mL of lysing buffer (1% triton X-100) was added to each of the four flasks. The walls of the flasks were rinsed using disposable pipettes. Once all the contents of the flasks were placed into a 1.5 mL disposable centrifuge tubes (each flask yielded ˜1.2 mL), the tubes were centrifuged at 6000 rpm and at 4° C. for 30 minutes on the Fisher Model 59V high-speed centrifuge. BCA Assay was done to establish the amount of cells in each flask.
Rh content of each flask was determined using an inductively coupled plasma (ICP) instrument (AtomScan16, Thermo Elemental, Franklin, Mass.). From each centrifuge tube 1 mL was pipetted and 370 μL of concentrated HCl was added to form a 10% solution. The samples were heated in a hot water bath at 70° C. for 30 minutes. The samples were centrifuged again and the supernatant liquid was diluted to 8 mL by adding nano-pure water. The samples were analyzed for Rh content by ICP.

On to `[Cl-].[Cl][Rh+]12([Cl])([N]3C=CC=c4ccc5c(c43)[N]1C=CC=5)[N]1C=CC=c3c1c1c(c4nc5ccccc5nc34)=CC=C[N]12` [DPPZPHEN, cis-dichloro(dipyrido[3,2a-2′3′c]phenazine)(1,10-phenantroline) rhodium(III) chloride], for which, in the series on CT DNA, the “intrinsic binding constant (Keq, association constant with DNA)” value was 340000 M⁻¹. For the same compound, the “frank nicks / nicking of φX-174 supercoiled plasmid DNA upon irradiation” value in the series on φX-174 plasmid DNA (311 nm irradiation, Example VIII) is listed as “light dose dependent”. The “photonicking of φX-174 plasmid DNA” value with φX-174 plasmid DNA (Example IX, dark and upon exposure to light) is “found to photonick”. Further, in the series with φX-174 plasmid DNA (oxygen-saturated solutions with quenchers, and under argon, relative to buffered control), the “protection of the DNA from photonicking by ROS quenchers or argon” value is reported as “no significant level of protection”. In addition, in the series with SINV genomic RNA, the “SINV capsid protein (CP) in transfected BHK cells” value was “CP was not observed”. For the same compound, in the series on cell membrane, the “ability to pass through the cell membrane” value is “able to pass through the cell membrane”.
